The source of these data is patent EP4467141A1, “PYRAZOLO-QUINOLINES AS SELECTIVE INHIBITORS OF GENOTOXIC STRESS-INDUCED IKK/NF- KB PATHWAYS FOR CANCER THERAPY” (Max-Delbrück-Centrum für Molekulare Medizin in der …, priority 2023, dated 2024).

What all share (assay): Kinase panel study
Holding throughout (type): biochemical
What all share (details): read-out: Percentage of inhibition; for inhibition at 1 µM: 1000nM; for inhibition at 10 µM: 10000nM

For assay [1], the target named is T1, RPS6KA3 (RSK2) (Homo sapiens, UniProt P51812).
T1 construct: purchased Thermo Fisher Scientific
An outline of the steps: (§1)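 Readout is percentage kinase inhibition. Testing used 1 µM or 10 µM compound in externally run ZLyte/Adapta in vitro assays, and IC50 values were derived within the same panel.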

Assay [2] has as its target T2, STK4 (MST1) (Homo sapiens, UniProt Q13043).
T2 construct: purchased Thermo Fisher Scientific
T2 sequence (Q13043 1-487): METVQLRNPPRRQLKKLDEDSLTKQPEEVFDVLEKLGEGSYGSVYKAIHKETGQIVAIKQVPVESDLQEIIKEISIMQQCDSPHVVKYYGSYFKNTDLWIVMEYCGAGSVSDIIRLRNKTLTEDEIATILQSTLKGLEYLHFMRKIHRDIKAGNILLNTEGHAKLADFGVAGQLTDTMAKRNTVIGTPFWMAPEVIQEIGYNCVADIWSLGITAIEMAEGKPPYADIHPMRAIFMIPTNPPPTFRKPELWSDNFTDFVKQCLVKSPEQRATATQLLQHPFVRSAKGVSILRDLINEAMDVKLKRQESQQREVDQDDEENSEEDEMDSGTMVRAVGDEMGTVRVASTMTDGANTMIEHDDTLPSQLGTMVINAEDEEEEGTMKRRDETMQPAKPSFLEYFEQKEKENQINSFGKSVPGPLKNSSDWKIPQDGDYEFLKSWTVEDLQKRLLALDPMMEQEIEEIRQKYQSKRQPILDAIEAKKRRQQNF
An outline of the steps: as §1

Assay [3] has as its target T3, MATK (HYL) (Homo sapiens, UniProt P42679).
T3 construct: purchased Thermo Fisher Scientific
T3 sequence (P42679 1-507): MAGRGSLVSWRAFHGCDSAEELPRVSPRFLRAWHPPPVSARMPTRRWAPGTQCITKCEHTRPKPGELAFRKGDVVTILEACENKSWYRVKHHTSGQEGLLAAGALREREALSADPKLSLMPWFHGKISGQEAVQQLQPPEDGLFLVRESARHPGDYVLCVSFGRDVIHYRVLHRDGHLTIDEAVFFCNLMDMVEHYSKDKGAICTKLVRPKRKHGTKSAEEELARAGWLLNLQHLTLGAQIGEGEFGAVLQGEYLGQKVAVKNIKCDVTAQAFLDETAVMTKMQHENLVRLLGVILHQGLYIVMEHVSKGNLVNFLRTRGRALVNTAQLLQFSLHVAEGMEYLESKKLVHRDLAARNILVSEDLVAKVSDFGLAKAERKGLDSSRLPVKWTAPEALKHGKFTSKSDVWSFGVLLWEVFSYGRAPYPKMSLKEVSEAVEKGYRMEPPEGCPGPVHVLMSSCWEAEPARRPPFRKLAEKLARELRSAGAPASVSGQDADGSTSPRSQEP
An outline of the steps:
as §1

For assay [4], the target named is T4, AMPK (A2/B1/G2) (Homo sapiens, UniProt P54646).
T4 construct: purchased Thermo Fisher Scientific
T4 sequence (P54646 whole entry): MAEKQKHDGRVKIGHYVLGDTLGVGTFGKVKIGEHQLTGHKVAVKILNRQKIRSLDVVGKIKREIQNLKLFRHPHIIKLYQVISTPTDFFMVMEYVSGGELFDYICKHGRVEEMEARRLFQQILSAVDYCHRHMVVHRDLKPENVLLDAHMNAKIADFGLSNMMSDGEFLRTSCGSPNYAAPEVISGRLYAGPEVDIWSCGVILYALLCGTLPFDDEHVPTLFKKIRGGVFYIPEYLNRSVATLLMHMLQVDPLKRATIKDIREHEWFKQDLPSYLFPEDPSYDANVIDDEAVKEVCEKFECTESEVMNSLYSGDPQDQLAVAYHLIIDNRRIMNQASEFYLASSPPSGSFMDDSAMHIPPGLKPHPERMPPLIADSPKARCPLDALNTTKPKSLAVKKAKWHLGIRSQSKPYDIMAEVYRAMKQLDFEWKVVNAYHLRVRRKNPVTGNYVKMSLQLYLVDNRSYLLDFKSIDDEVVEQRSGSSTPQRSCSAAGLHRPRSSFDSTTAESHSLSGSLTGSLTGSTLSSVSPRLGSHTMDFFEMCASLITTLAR
T4 sequence (Q9Y478 whole entry partner): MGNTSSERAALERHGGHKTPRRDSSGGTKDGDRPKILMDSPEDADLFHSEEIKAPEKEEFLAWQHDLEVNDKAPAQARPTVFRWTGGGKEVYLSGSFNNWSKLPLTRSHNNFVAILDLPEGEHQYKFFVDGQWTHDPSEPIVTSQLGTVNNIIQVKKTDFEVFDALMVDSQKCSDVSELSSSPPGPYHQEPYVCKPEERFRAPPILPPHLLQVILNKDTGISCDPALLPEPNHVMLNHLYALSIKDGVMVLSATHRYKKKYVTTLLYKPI
T4 sequence (Q9UGJ0 whole entry partner): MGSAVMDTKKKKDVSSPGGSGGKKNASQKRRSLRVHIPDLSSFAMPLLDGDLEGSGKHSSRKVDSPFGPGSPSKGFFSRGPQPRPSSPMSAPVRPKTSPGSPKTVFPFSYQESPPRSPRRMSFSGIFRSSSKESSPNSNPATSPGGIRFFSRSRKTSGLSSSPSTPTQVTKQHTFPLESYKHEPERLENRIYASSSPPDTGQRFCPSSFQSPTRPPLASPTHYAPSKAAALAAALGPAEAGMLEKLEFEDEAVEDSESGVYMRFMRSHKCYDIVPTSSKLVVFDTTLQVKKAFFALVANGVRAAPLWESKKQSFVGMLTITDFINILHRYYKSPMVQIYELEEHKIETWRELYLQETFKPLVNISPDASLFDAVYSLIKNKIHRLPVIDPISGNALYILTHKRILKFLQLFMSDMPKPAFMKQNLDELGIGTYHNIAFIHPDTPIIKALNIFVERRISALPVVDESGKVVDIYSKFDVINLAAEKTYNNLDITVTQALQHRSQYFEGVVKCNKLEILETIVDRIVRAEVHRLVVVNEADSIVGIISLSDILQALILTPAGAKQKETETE
An outline of the steps:
as §1

Assay [5] has as its target T5, ITK (Homo sapiens, UniProt Q08881).
T5 construct: purchased Thermo Fisher Scientific
T5 sequence (Q08881 1-620): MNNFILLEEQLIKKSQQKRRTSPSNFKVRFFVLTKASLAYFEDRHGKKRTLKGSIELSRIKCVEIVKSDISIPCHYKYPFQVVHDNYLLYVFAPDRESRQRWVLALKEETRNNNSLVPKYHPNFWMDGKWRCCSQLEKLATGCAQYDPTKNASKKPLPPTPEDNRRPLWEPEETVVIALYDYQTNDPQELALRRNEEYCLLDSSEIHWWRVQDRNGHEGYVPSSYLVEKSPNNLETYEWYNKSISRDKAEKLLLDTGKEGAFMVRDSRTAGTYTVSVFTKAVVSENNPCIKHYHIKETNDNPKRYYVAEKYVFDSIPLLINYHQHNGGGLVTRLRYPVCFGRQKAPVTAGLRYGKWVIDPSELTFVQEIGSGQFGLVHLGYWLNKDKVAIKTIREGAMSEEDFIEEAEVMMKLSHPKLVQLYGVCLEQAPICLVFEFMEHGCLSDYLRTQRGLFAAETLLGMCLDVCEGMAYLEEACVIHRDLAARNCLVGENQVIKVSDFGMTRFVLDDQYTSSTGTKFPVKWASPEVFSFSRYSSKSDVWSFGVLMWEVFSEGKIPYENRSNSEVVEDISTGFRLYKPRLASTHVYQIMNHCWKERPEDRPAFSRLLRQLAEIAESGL
An outline of the steps:
as §1

Assay [6] has as its target T6, LRRK2 FL (Homo sapiens, UniProt Q5S007).
T6 construct: LRRK2 FL; purchased Thermo Fisher Scientific
An outline of the steps:
as §1

Assay [7] deals with T7, PRKCB1 (PKC beta I) (Homo sapiens, UniProt P05771).
T7 construct: purchased Thermo Fisher Scientific
T7 sequence (P05771 whole entry): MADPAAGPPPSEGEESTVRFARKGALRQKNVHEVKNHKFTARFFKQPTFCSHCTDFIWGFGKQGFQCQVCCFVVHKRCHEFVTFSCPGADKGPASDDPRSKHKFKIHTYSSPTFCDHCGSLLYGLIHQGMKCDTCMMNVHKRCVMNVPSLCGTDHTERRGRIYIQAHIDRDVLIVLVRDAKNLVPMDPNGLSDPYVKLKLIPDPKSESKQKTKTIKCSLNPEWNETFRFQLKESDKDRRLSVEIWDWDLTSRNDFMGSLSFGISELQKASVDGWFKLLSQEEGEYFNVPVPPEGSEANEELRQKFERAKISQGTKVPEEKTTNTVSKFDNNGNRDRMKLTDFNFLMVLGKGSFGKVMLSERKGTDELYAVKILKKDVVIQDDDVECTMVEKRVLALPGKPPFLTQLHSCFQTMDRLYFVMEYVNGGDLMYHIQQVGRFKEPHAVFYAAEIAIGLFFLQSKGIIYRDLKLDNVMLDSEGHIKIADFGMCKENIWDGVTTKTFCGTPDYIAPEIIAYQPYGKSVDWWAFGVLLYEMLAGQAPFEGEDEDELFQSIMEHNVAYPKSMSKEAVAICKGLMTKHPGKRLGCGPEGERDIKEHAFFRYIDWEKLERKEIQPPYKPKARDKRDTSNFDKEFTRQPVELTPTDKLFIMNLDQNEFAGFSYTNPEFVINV
The gist of the method: as §1

Assay [8] addresses T8, FGR (Homo sapiens, UniProt P09769).
T8 construct: purchased Thermo Fisher Scientific
The gist of the method:
as §1

In assay [9] the target is T9, FGFR1 (Homo sapiens, UniProt P11362).
T9 construct: purchased Thermo Fisher Scientific
The gist of the method:
as §1

Structures are written as SMILES.

T6 sequence (Q5S007 whole entry): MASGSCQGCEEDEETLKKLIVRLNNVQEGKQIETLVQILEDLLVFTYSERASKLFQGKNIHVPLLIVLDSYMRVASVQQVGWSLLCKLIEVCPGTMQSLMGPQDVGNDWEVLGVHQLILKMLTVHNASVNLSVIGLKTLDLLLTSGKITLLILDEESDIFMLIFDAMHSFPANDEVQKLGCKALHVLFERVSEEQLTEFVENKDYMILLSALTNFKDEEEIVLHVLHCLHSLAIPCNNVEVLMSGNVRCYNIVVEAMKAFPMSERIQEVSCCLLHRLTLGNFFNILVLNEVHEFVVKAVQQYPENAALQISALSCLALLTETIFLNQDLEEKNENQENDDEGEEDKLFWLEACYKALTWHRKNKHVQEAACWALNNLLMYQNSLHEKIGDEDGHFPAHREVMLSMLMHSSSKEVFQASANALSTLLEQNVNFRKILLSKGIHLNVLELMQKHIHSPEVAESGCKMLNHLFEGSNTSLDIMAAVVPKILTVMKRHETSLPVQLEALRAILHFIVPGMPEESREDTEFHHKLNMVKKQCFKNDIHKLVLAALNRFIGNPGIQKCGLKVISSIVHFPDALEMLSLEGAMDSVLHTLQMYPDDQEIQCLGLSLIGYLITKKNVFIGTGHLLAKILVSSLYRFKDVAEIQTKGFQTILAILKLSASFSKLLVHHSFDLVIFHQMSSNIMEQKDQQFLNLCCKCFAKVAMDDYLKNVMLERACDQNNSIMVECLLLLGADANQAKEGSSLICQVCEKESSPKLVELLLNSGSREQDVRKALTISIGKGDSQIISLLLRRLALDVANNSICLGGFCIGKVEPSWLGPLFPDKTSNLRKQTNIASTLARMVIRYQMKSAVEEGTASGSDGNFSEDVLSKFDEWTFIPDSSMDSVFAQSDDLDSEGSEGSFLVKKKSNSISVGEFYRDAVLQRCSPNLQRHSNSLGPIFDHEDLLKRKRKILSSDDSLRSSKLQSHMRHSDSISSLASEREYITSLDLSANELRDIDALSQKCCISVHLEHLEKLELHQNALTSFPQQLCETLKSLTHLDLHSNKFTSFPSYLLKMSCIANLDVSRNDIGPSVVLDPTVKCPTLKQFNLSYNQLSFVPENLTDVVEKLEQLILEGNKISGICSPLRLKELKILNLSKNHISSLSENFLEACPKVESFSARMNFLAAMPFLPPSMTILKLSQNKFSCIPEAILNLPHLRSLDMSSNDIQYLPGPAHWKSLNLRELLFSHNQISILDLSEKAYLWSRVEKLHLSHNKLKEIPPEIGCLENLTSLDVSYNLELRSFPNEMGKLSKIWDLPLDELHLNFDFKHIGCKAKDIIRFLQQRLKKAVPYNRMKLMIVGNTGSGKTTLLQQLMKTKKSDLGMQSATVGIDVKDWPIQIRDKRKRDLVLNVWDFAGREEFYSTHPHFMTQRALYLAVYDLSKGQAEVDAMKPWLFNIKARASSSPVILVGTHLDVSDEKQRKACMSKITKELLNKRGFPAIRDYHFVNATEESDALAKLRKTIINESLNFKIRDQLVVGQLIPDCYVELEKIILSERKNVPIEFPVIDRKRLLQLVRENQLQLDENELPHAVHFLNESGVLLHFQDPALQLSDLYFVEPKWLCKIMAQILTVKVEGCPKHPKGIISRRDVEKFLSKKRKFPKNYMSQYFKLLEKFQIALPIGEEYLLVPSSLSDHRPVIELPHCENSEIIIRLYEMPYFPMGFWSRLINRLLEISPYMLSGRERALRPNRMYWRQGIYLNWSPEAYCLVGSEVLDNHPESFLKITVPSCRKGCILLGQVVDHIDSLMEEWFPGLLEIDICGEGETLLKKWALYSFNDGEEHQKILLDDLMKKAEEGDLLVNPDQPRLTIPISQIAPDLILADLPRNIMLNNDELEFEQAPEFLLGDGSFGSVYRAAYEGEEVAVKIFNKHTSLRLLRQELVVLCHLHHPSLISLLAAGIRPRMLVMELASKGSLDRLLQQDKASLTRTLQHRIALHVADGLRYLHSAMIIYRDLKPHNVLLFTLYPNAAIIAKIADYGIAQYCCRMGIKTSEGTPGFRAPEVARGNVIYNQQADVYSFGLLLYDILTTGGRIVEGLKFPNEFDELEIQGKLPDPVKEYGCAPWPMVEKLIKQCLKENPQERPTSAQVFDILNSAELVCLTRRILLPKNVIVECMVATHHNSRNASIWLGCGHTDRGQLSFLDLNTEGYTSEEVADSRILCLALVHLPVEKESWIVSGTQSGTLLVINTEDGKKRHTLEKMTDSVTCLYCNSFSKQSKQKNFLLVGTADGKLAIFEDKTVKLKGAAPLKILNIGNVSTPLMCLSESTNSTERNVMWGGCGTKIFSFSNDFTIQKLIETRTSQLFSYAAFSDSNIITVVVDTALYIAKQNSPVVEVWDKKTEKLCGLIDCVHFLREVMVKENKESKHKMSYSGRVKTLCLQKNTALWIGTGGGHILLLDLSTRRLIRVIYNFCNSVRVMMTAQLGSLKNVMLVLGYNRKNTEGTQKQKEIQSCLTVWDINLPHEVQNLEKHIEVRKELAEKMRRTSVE

One may read the inhibition as the relative decrease from the control value, in per cent. Consider `COc1ccc2c(c1OC)c(=O)n1c3ccc(O)cc3c3ccnc2c31` [MW01, 5-Hydroxy-10,11-dimethoxy-9H-benzo[c]indolo[3,2,1-ij][1,5]naphthyridin-9-one], for which the inhibition at 1 µM in assay [1] is 5%; in assay [2], 4%; in assay [3] it was 14%; in assay [4], -12%; in [5] it was 0%; in assay [6], 85%. The inhibition at 1 µM in [7] is 1%; in [8], 10%; in [9], 6%. In addition, the inhibition at 10 µM in assay [1] was 10%; in assay [2] it was 11%; in [3], 2%; in assay [4], 10%; in assay [5], -2%; in [6] it was 90%. Besides, the inhibition at 10 µM was -17% in [7], 26% in assay [8] and 5% in assay [9].
Turning to `COc1ccc2cc3c(N)nn(C(=O)c4cccc(N(C)C)c4)c3nc2c1` [MW05, (3-Amino-7-methoxypyrazolo[3,4-b]quinolin-1-yl)-[3-(dimethylamino)phenyl]methanone], the inhibition at 1 µM was 3% in assay [1]; 4% in [2]; 13% in assay [3]; -12% in assay [4]; -10% in assay [5]; -6% in assay [6]. In addition, the figures for the inhibition at 1 µM in [7], in assay [8] and in [9] were 5%, 5% and -1%, respectively. In addition, the inhibition at 10 µM was 2% in [1]; 3% in assay [2]; 13% in [3]; -16% in [4]; -6% in assay [5]; 6% in assay [6]. In addition, the inhibition at 10 µM in assay [7] was -7%; in assay [8], 15%; in assay [9], -7%.
